Data: patent US8721963B2, “Cold sterilization of tissue engineering scaffolds with compressed carbon dioxide” (University of South Carolina, priority 2010, dated 2014)

Columns and labels:
[1] = tested on: Staphylococcus aureus (S. aureus) (ATCC 25923); assay: Inactivation of S. aureus embedded in model hydrogel by SC-CO2 treatment (plate counting); assay type: cell-based; settings: 27.6 MPa, 40° C.
Procedure: Staphylococcus aureus (S. aureus) (ATCC 25923) and Escherichia coli (E. coli) (ATCC 15597) were used as test microorganisms embedded in the hydrogel to investigate the bacteriocidal activity of pure SC-CO2 or SC-CO2+H2O2. Suspensions of S. aureus and E. coli were prepared for inoculation of the hydrogel. Cultures of these bacteria were preserved on DifcoTM […] soy agar and stored in Petri dishes inside of a refrigerator at 4° C. A fresh colony was transferred aseptically from the agar culture plate into a culture tube containing 30 g/L of sterile tryptone soy broth (TSB). The bacteria were grown to a logarithmic phase in the TSB at 35° C. for 24 hours (Cappuccino and Sherman 2001). A fresh bacterial culture was prepared before every experiment to ensure cell viability. Both S. aureus and E. coli bacteria suspensions were diluted after incubation to a concentration of approximately 107 colony forming units per milliliter (cfu/mL). A Petroff Hausser counting chamber was used to quantify the cfu count in the diluted samples. Also, a standard plate counting technique was followed to verify the original number of cfu. The final number of S. aureus or E. coli generally ranged from 7.6×106 to 2.3×10^8 cfu/mL. The hydrogel was hydrated with the diluted bacteria suspension of either S. aureus or E. coli. For CO2 sterilization experiments, the model gel was hydrated with the diluted bacteria suspension. Typically, 0.1 g of dry powder (absorption capacity of 200 mL H2O/g) was hydrated with steam autoclaved DI water. The hydrated powder was left overnight inside of a refrigerator at 4° C. About 3 g of the completely incorporated hydrated gel were then transferred into a polyallomer centrifuge tube for the CO2 treatment, to be described subsequently. […] A pulverization procedure was followed to quantify the amount of bacteria in the inoculated hydrogel. Bacteria were dislodged from the gel by pulverizing in a Stomacher 400 Circulator (Seward Ltd., United Kingdom) for 10 minutes at 230 revolutions per minute (rpm). The degree of killing was quantified with a standard plate counting technique. The log reduction of bacteria (S. aureus or E. coli) was calculated with equation (1), [formula] For use as negative controls, a quantified amount of inoculated hydrogel (with either S. aureus or E. coli) in a polyallomer centrifuge tube was immersed in a PolyScience laboratory temperature bath (model 9105) at 40° C. for 4 hours. The inoculated hydrogel was removed from the bath, pulverized in the Stomacher 400, and the degree of killing was quantified using the standard plate counting technique.

[2] = tested on: Escherichia coli (E. coli) (ATCC 15597); assay: Inactivation of E. coli embedded in model hydrogel by SC-CO2 treatment (plate counting); assay type: cell-based; settings: 27.6 MPa, 40° C., 4 hours
Procedure: Staphylococcus aureus (S. aureus) (ATCC 25923) and Escherichia coli (E. coli) (ATCC 15597) were used as test microorganisms embedded in the hydrogel to investigate the bacteriocidal activity of pure SC-CO2 or SC-CO2+H2O2. Suspensions of S. aureus and E. coli were prepared for inoculation of the hydrogel. Cultures of these bacteria were preserved on DifcoTM […] soy agar and stored in Petri dishes inside of a refrigerator at 4° C. A fresh colony was transferred aseptically from the agar culture plate into a culture tube containing 30 g/L of sterile tryptone soy broth (TSB). The bacteria were grown to a logarithmic phase in the TSB at 35° C. for 24 hours (Cappuccino and Sherman 2001). A fresh bacterial culture was prepared before every experiment to ensure cell viability. […] A Petroff Hausser counting chamber was used to quantify the cfu count in the diluted samples. […] A pulverization procedure was followed to quantify the amount of bacteria in the inoculated hydrogel. […] The degree of killing was quantified with a standard plate counting technique. The log reduction of bacteria (S. aureus or E. coli) was calculated with equation (1), [formula] For use as negative controls, a quantified amount of inoculated hydrogel (with either S. aureus or E. coli) in a polyallomer centrifuge tube was immersed in a PolyScience laboratory temperature bath (model 9105) at 40° C. for 4 hours. […]

B. pumilus spores = settings: 40° C., 27.58 MPa, 4 hours; cited from earlier work
B. atrophaeus spores = settings: 40° C., 27.58 MPa, 4 hours; cited from earlier work
[3] = tested on: G. stearothermophilus spores; settings: 40° C., 27.58 MPa, 4 hours; cited from earlier work

O=C=O [pure SC-CO2, carbon dioxide]
killing of S. aureus ([1]; in hydrogel, 4 hours): Complete killing | D-value (D40) of S. aureus ([1]; in hydrogel): 4.6 min | time required to obtain 6-log reduction of S. aureus ([1]; in hydrogel): about 27.4 minutes | log-reduction of S. aureus ([1]; in hydrogel, 10 minutes): 1.94 log | log-reduction of S. aureus ([1]; in hydrogel, 15 minutes): 3.42 log | log-reduction of S. aureus ([1]; in hydrogel, 20 minutes): 4.13 log | killing of S. aureus ([1]; in hydrogel, 30 minutes): complete kill | killing of S. aureus ([1]; in hydrogel, 60 minutes): complete kill | average log-reduction of S. aureus ([1]; in poly(acrylic acid-co-acrylamide) hydrogel, 4 hours): 7.72 log | killing of E. coli ([2]; in hydrogel): Complete killing | average log-reduction of E. coli ([2]; in poly(acrylic acid-co-acrylamide) hydrogel): 7.93 log | log reduction of B. pumilus spores (B. pumilus spores): 6 log | log reduction of B. atrophaeus spores (B. atrophaeus spores): 6 log | log reduction of G. stearothermophilus spores [3]: 6 log
